Measured values taken from article PMC5577450, “An ancient FMRFamide-related peptide–receptor pair induces defence behaviour in a brachiopod larva” (Open Biology, 2017).

Legend:
[1] = system: Terebratalia transversa larvae; experiment: Behavioural assay: full contraction / defence stance of larvae exposed to synthetic peptides; format: in vivo; conditions: for contraction reaction of larvae (in words): at 50 µmol l^−1 (maximum concentration cutoff); for necessary concentration to induce defense stance (full contraction): > 50 stands for 'no contraction at 50 µM'
Description: The reaction of larvae to synthetic peptides (GenScript) that were predicted from the prepropeptide sequence were tested and compared with the reactions to peptides with non-native modifications. Freely swimming larvae were exposed to different concentrations of peptides in 4-well and 6-well plates (1 ml and 5 ml total volume per well, respectively), and their reactions were observed under a stereomicroscope. To determine the efficiency of the native and modified peptides, the larvae were tested for the necessary minimum concentration at which they fully contracted and spread their chaetae, using 30–100 larvae in each test. To get an estimation of the peptide concentration that was necessary to induce a complete contraction, the larvae were initially exposed to 50 nmol l^−1 of the respective peptide and the concentration was then increased stepwise until the larvae fully contracted or a concentration of 50 µmol l^−1 was reached as an upper cutoff. […] To test the influence of the peptides on the vertical distribution of larvae in a water column, freely swimming larvae (50–100 per treatment) were exposed to peptides in transparent 4.5 ml cuvettes. About 60 s after addition of the peptides, the larvae were recorded with a digital camera (DMK 31AU03 camera, The Imaging Source) in a darkened box with artificial top-illumination. All experiments were repeated at least once with a different batch of larvae from another fertilization and the outcome was averaged. Control animals were exposed to DMSO only.

[2] = system: T. transversa FLRFamide receptor; experiment: Receptor deorphanization: luminescence response of transfected CHO-K1 cells; format: cell-based, Terebratalia transversa; conditions: fixed peptide concentration 1 µmol l^−1 (figure 4a)
T. transversa FLRFamide receptor, sequence (as listed by the source): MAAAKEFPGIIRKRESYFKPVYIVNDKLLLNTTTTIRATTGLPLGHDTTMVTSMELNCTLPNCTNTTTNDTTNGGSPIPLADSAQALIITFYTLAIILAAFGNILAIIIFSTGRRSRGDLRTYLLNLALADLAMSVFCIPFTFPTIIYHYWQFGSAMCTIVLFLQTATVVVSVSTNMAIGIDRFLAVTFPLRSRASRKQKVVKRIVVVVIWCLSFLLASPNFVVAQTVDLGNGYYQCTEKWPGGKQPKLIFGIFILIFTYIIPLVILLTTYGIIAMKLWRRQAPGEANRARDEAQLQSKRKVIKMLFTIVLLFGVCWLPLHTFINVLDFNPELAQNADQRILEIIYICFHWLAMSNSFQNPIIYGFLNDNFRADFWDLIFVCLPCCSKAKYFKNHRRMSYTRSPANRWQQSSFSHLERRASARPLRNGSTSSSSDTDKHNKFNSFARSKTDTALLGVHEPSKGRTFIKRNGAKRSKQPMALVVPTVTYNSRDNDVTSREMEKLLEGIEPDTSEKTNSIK
Description: For the receptor deorphanization, the procedure was used as described by Bauknecht & Jékely: full-length open reading frames of the receptor candidate sequences were amplified by PCR from cDNA of mixed larval stages. The forward primers included a 5′ attachment consisting of a spacer, an EcoR1 or BamH1 restriction site and a Kozak sequence and the reverse primers included a 5′ attachment consisting of a spacer and a Not1 restriction site (see the electronic supplementary material for primer sequences). […] The luminescence response of the transfected cells was measured in a plate reader (BioTek Synergy Mx or Synergy H4, BioTek, Winooski, USA) over 45 s after addition of the neuropeptides. […] Dose–response curves were calculated using PRISM 6 (GraphPad, La Jolla, USA) and normalized against the upper plateau values (100% activation).
Figure 4. Luminescence response of T. transversa FLRFamide receptor expressing CHO-K1 cells to different peptides. (a) Relative luminescence of T. transversa FLRFamide receptor expressing cells after exposure to different peptides with a fixed concentration of 1 µmol l^−1. […] Luminescence values are given relative to maximum luminescence (max = 1). RLU relative luminescence.

[3] = system: late chaetous larvae of P. dumerilii; experiment: Behavioural test of the orthologue peptide for a defence reaction; format: in vivo, Platynereis dumerilii; conditions: no defence reaction even above this concentration
[4] = system: late chaetous larvae of Novocrania anomala; experiment: as above; format: in vivo; conditions: no defence reaction even above this concentration

Substance | contraction reaction of larvae (in words) [1] | necessary concentration to induce defense stance (full contraction) ([1]; batch 1) [µM] | necessary concentration to induce defense stance (full contraction) ([1]; batch 2) [µM] | other results
AFLRLamide [modified AFLRFamide with C-terminal leucine] | no reaction at all |  |  | 
AFLRWamide [modified AFLRFamide with amidated C-terminal tryptophan] |  | 20 | 20 | concentration triggering full contraction / defence stance (minimum necessary concentration) ([1]; cutoff 50 µmol l^−1): 20 µmol/L; reduction of effectiveness on changing the amidated C-terminal phenylalanine to an amidated tryptophan ([1]; relative to the corresponding Famide peptide): about 10 fold
DFLRLamide [modified DFLRFamide with C-terminal leucine] | very weak contraction |  |  | luminescence response of FLRFamide receptor expressing CHO-K1 cells (in words) [2]: barely higher than the negative control
FMRFamide [orthologue of AFLRFamide/DFLRFamide in P. dumerilii] |  |  |  | concentration inducing a defence reaction [3]: above 50 µmol l^−1
YMRFamide [orthologue of AFLRFamide/DFLRFamide] |  | 10 | 15 | concentration inducing a defence reaction [4]: above 50 µmol l^−1
